The text below walks through data of patent publication US20160031889A1, “ANTIVIRAL INDOLO[2,3-B]QUINOXALINE” (VIRONOVA HERPES AB, priority 2013, published 2016).

What is called melting point is the temperature of the solid-liquid transition.

For series [1], the system named is herpes simplex 1 virus (HSV1). The series is described as follows: Plaque Assay 1 (plaque counting). Type of series: cell-based. Particulars: for plaques seen in plaque assay: concentration and dilution not stated. How it is done:
The compounds prepared in Examples 1-4 were tested in a plaque assay using herpes simplex 1 virus (HSV1), and acyclovir (ACV) as a reference compound. […] The plaque counting results obtained when using the compounds of Examples 1 and 4, and the reference compound ACV, respectively, are shown in Tables 1-3.

The next series concerns HSV-1. Particulars: in vitro; cited from earlier work.

Structures can show the parent of a compound that is named as a salt.

On to `Br.C=CC[N+](C)(C)CCn1c2ccccc2c2nc3cc(C)c(C)cc3nc21`, for which the melting point was in the range of 248 to 252 °C.
Take `Nc1nc2c(ncn2COCCO)c(=O)[nH]1` [ACV, acyclovir, reference compound]: the plaque count in series [1] (compound 1 uM, 10^1 dilution) was determined as 15; in series [1] (compound 5 uM, 10^1 dilution), 8; in series [1] (compound 5 uM, 10^2 dilution), 1; in series [1] (compound 25 uM, 10^1 dilution), 2. The “selectivity ratio for the inhibitory activity against HSV-1” value with HSV-1 is “about 2000”.
For the compound `Cc1cc2nc3c4ccccc4n(CC[N+](C)(C)C)c3nc2cc1C.[I-]` [Example 1, 2,3-Dimethyl-6-[2-(trimethylamino)ethyl]-6H-indolo[2,3-b]quinoxaline iodide], the plaque count was determined as 19 in series [1] (compound 1 uM, 10^1 dilution); 3 in series [1] (compound 1 uM, 10^2 dilution); 1 in series [1] (compound 1 uM, 10^3 dilution); 8 in series [1] (compound 5 uM, 10^1 dilution); 2 in series [1] (compound 5 uM, 10^2 dilution).
Turning to `Cc1cc2nc3c4cc(Cl)ccc4n(CC(=O)NCCN(C)C)c3nc2cc1C` [Example 2, 9-chloro-N-[2-(dimethylamino)ethyl]-2,3-dimethyl-6H-Indolo[2,3-b]quinoxaline-6-acetamide], the “plaques seen in plaque assay” value in series [1] was “no plaques could be seen”.
Same read-out and setting: under `Cc1cc2nc3c4cc(Cl)ccc4n(CC(=S)NCCN(C)C)c3nc2cc1C` [Example 3, 9-chloro-N-[2-(dimethylamino)ethyl]-2,3-dimethyl-6H-Indolo[2,3-b]quinoxaline-6-thioacetamide] stands “no plaques could be seen”.
With `Cc1cc2nc3c4ccccc4n(CC[N+](C)(C)C)c3nc2cc1C` [Example 4, 2,3-dimethyl-6-[2-(trimethylamino)ethyl]-6H-indolo[2,3-b]quinoxaline methyl sulfate], the plaque count was 11 in series [1] (compound 1 uM, 10^1 dilution) and 2 in series [1] (compound 5 uM, 10^1 dilution).
